The source made the active and inactive calls. The calls are words filed in the database; no cut-off is given here.
Columns and labels:
Streptococcus pneumoniae = assay: Antibacterial activity against Streptococcus pneumoniae ATCC49619 assessed as inhibition of bacterial growth incubated for 18 hrs by CLSI protocol based microbroth dilution method; format: functional
Bacillus subtilis = assay: Antibacterial activity against Bacillus subtilis BNCC336690 assessed as inhibition of bacterial growth incubated for 18 hrs by CLSI protocol based microbroth dilution method; format: functional
Salmonella enteritidis = assay: Antibacterial activity against Salmonella enteritidis BNCC281091 assessed as inhibition of bacterial growth incubated for 18 hrs by CLSI protocol based microbroth dilution method; format: functional, Salmonella enterica subsp. enterica serovar Enteritidis; conditions: Salmonella enterica
Escherichia coli = assay: Bactericidal activity against penicillin-susceptible Escherichia coli ATCC25922 incubated for 24 hrs by CLSI protocol based microbroth dilution method; format: functional
Staphylococcus aureus [1] = assay: Selectivity ratio of MBC for bactericidal activity against methicillin-resistant Staphylococcus aureus ATCC43300 to MIC for antibacterial activity against methicillin-resistant Staphylococcus aureus ATCC43300; format: functional
Staphylococcus aureus [2] = assay: Antibacterial activity against methicillin-resistant Staphylococcus aureus ATCC43300 assessed as reduction in bacterial count at 1 times of MIC incubated for 24 hrs by time kill kinetics assay; format: functional, organism-based
Staphylococcus aureus [3] = assay: Antibacterial activity against methicillin-resistant Staphylococcus aureus ATCC43300 assessed as reduction in bacterial count at 2 times of MIC incubated for 24 hrs by time kill kinetics assay; format: functional, organism-based
Staphylococcus aureus [4] = assay: Antibacterial activity against methicillin-resistant Staphylococcus aureus ATCC43300 assessed as reduction in bacterial count at 4 times of MIC incubated for 24 hrs by time kill kinetics assay; format: functional, organism-based
Staphylococcus aureus [5] = assay: Antibacterial activity against methicillin-resistant Staphylococcus aureus ATCC43300 at assessed as reduction in bacterial growth at 0.5 times of MIC incubated for 18 to 24 hrs and measured after 25 passages by drug resistance assay; format: functional, organism-based
Cell membrane [6] = assay: Disruption of cell membrane integrity in methicillin-resistant Staphylococcus aureus ATCC43300 assessed as morphological deformation at 4 times of MIC incubated for 2 hrs by transmission electron microscopic analysis; format: cell membranes
Cell membrane [7] = assay: Disruption of cell membrane integrity in methicillin-resistant Staphylococcus aureus ATCC43300 assessed as ghost cell formation at 4 times of MIC incubated for 2 hrs by transmission electron microscopic analysis; format: cell membranes
Cell membrane [8] = assay: Disruption of cell membrane integrity in methicillin-resistant Staphylococcus aureus ATCC43300 assessed as appearance of sunken fine microstructures at 4 times of MIC incubated for 2 hrs by scanning electron microscopic analysis; format: cell membranes
Cell membrane [9] = assay: Disruption of cell membrane integrity in penicillin-susceptible Escherichia coli ATCC25922 at 4 times of MIC incubated for 2 hrs by scanning electron microscopic analysis; format: cell membranes
Staphylococcus aureus [10] = assay: Induction of morphological changes in methicillin-resistant Staphylococcus aureus ATCC43300 assessed as swelling at 0.5 times of MIC incubated for 4 hrs by optical microscopic analysis; format: functional, organism-based
[11] = target: T1, Cell division protein FtsZ (Staphylococcus aureus) (UniProt P0A031); assay: Induction of recombinant FtsZ polymerization in methicillin-resistant Staphylococcus aureus ATCC43300 assessed as bundling of FtsZ protofilaments at 1 to 4 microg/ml measured within 5 mins by light scattering assay; conditions: filed as activator, dose 1-4 µg/ml
T1 sequence (whole entry): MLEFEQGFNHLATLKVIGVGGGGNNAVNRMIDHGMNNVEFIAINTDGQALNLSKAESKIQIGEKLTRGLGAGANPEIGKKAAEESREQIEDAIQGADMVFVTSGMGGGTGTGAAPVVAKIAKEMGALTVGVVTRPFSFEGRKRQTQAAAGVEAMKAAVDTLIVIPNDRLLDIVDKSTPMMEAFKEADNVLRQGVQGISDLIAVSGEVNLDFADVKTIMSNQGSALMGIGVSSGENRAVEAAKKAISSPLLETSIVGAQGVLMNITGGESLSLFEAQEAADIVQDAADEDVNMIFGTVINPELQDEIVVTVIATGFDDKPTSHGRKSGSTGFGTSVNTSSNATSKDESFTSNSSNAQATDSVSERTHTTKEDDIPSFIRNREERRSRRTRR

[12] = target: T1, Cell division protein FtsZ (Staphylococcus aureus); assay: Induction of recombinant FtsZ polymerization in methicillin-resistant Staphylococcus aureus ATCC43300 assessed as bundling of FtsZ protofilaments by measuring fold increase in maximal intensity at 4 microg/ml measured after 10 mins by light scattering assay; conditions: filed as activator, dose 4.0 µg/ml
[13] = target: T2, Cell division protein FtsZ (Escherichia coli K-12) (UniProt P0A9A6); assay: Induction of recombinant FtsZ polymerization in penicillin-susceptible Escherichia coli ATCC25922 assessed as bundling of FtsZ protofilaments at 1 to 4 microg/ml incubated for 10 mins by light scattering assay; conditions: filed as activator, dose 1-4 µg/ml
T2 sequence (whole entry): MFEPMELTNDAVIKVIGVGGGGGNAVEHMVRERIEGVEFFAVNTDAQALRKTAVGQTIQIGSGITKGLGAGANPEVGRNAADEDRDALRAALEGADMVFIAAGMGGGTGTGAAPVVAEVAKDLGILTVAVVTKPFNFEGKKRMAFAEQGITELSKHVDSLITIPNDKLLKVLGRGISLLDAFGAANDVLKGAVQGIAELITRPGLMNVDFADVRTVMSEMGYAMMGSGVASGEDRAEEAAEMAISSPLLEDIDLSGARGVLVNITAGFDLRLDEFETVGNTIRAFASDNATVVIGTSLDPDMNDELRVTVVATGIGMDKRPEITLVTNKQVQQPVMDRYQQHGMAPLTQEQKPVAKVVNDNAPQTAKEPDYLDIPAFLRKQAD

[14] = target: T1, Cell division protein FtsZ (Staphylococcus aureus); assay: Induction of FtsZ polymerization in methicillin-resistant Staphylococcus aureus ATCC43300 assessed as increase in thickness of assembly at 4 microg/ml preincubated for 10 mins followed by GTP addition and measured after 15 mins by transmission electron microscopic analysis; conditions: filed as activator, dose 4.0 µg/ml, time 25.0 min
[15] = target: T1, Cell division protein FtsZ (Staphylococcus aureus); assay: Induction of FtsZ polymerization in methicillin-resistant Staphylococcus aureus ATCC43300 assessed as bundling of FtsZ protofilaments at 4 microg/ml preincubated for 10 mins followed by GTP addition and measured after 15 mins by transmission electron microscopic analysis; conditions: filed as activator, dose 4.0 µg/ml, time 25.0 min
[16] = target: T2, Cell division protein FtsZ (Escherichia coli K-12); assay: Induction of FtsZ polymerization in penicillin-susceptible Escherichia coli ATCC25922 assessed as larger bundles at 4 microg/ml preincubated for 10 mins followed by GTP addition and measured after 15 mins by transmission electron microscopic analysis; conditions: filed as activator, dose 4.0 µg/ml, time 25.0 min
[17] = target: T2, Cell division protein FtsZ (Escherichia coli K-12); assay: Induction of FtsZ polymerization in penicillin-susceptible Escherichia coli ATCC25922 assessed as thicker bundles at 4 microg/ml preincubated for 10 mins followed by GTP addition and measured after 15 mins by transmission electron microscopic analysis; conditions: filed as activator, dose 4.0 µg/ml, time 25.0 min
[18] = target: T2, Cell division protein FtsZ (Escherichia coli K-12); assay: Enhancement of FtsZ GTPase activity in penicillin-susceptible Escherichia coli ATCC25922 upto 8 microg/ml incubated for 30 mins by malachite green phosphate based assay relative to control; conditions: dose <= 8.0 µg/ml
Erythrocyte = assay: Hemolytic activity in human erythrocytes at 0.195 to 25 microg/ml incubated for 1 hrs by absorbance based assay; format: toxicity, cell-based; conditions: dose 0.195-25 µg/ml
Staphylococcus aureus [19] = assay: Inhibition of biofilm formation in methicillin-resistant Staphylococcus aureus ATCC43300 incubated for 24 hrs by crystal violet staining based analysis; format: functional, organism-based; conditions: dose 0.78-100 µg/ml

O=C1c2ccccc2-[n+]2ccc3c([nH]c4ccc(-c5ccccc5F)cc43)c21.[Cl-]
MIC (Streptococcus pneumoniae): 0.195 µg/mL | MIC (Bacillus subtilis): 0.024 µg/mL | MIC (Salmonella enteritidis): 12.5 µg/mL | MBC (Escherichia coli): 6.25 µg/mL | Selectivity ratio (Staphylococcus aureus [1]): 1 | Activity (Staphylococcus aureus [2]): Active | Activity (Staphylococcus aureus [3]): Active | Activity (Staphylococcus aureus [4]): Active | Activity (Staphylococcus aureus [5]): Active | Activity (Cell membrane [6]): Active | Activity (Cell membrane [7]): Active | Activity (Cell membrane [8]): Active | Activity (Cell membrane [9]): Active | Activity (Staphylococcus aureus [10]): Active | Activity [11]: Active | fold change (FC) [12]: 2 | Activity [13]: Active | Activity [14]: Active | Activity [15]: Active | Activity [16]: Active | Activity [17]: Active | Activity [18]: 10% | Activity (Erythrocyte): Non-Toxic | inhibition (Staphylococcus aureus [19]): Dose-Dependent Effect

O=C1c2ccccc2-[n+]2ccc3c([nH]c4ccc(-c5ccccc5Cl)cc43)c21.[Cl-]
MIC (Streptococcus pneumoniae): 0.195 µg/mL | MIC (Bacillus subtilis): 0.049 µg/mL | MIC (Salmonella enteritidis): 50 µg/mL | MBC (Escherichia coli): 50 µg/mL | Selectivity ratio (Staphylococcus aureus [1]): 1 | Activity (Staphylococcus aureus [2]): Active | Activity (Staphylococcus aureus [3]): Active | Activity (Staphylococcus aureus [4]): Active | Activity (Staphylococcus aureus [5]): Active | Activity (Cell membrane [6]): Active | Activity (Cell membrane [7]): Active | Activity (Cell membrane [8]): Active | Activity (Cell membrane [9]): Active | Activity (Staphylococcus aureus [10]): Active | Activity [11]: Active | fold change (FC) [12]: 2 | Activity [13]: Active | Activity [14]: Active | Activity [15]: Active | Activity [16]: Active | Activity [17]: Active | Activity [18]: 10% | Activity (Erythrocyte): Non-Toxic | inhibition (Staphylococcus aureus [19]): Dose-Dependent Effect

O=C1c2ccccc2-[n+]2ccc3c([nH]c4ccc(-c5ccccc5C(F)(F)F)cc43)c21.[Cl-]
MIC (Streptococcus pneumoniae): 0.195 µg/mL | MIC (Bacillus subtilis): 0.024 µg/mL | MIC (Salmonella enteritidis): 12.5 µg/mL | MBC (Escherichia coli): 50 µg/mL | Selectivity ratio (Staphylococcus aureus [1]): 1 | Activity (Staphylococcus aureus [2]): Active | Activity (Staphylococcus aureus [3]): Active | Activity (Staphylococcus aureus [4]): Active | Activity (Staphylococcus aureus [5]): Active | Activity (Cell membrane [6]): Active | Activity (Cell membrane [7]): Active | Activity (Cell membrane [8]): Active | Activity (Cell membrane [9]): Active | Activity (Staphylococcus aureus [10]): Active | Activity [11]: Active | fold change (FC) [12]: 2 | Activity [13]: Active | Activity [14]: Active | Activity [15]: Active | Activity [16]: Active | Activity [17]: Active | Activity [18]: 10% | Activity (Erythrocyte): Non-Toxic | inhibition (Staphylococcus aureus [19]): Dose-Dependent Effect
